The source of these data is patent US20260097106A1, “AVIRULENT LIVE BACTERIAL VACCINES CURED OF PLASMIDS CONTAINING ANTIMICROBIAL RESISTANCE GENES” (Drs. Koehnk & Feldman, LLP, priority 2022, published 2026).

For assay [1], the system named is F18 Cured vaccine (MS060520HM-PCISRAF18). Nature of the assay: Antibiotic sensitivity (Int/MIC) at Iowa State University. The format is cell-based, E. coli. Conditions: for MIC: F18 Cured vaccine; for Antibiotic resistance of cured cells (in words): cured MS060520HM-PCISRAF18 cells over MS112101HM-competent cells. As to the method: (§1) The antibiotic sensitivity of Edema Vac F18 cells cured of plasmids that contain AMR genes (MS060520HM-PCISRAF18) was performed at Iowa State University (ISU) (Accession: 2020076670) with comparison to MS112101HM-competent cells (see Tables 4 and 5).

In assay [2] the test system is F18 Pre-Cured cells (MS112101HM-competent). The assay is described as above. Conditions: Table 4, E. COLH. The format is cell-based, E. coli. The procedure:
as §1

Assay [3] relates to K88 Pre-Cured cells (ECMS091703HM-competent). The description is as above. The format is cell-based, E. coli. Conditions: Table 7, E. COS. The procedure:
(§2) The antibiotic sensitivity of Entero Vac K88 cells cured of plasmids that contain AMR genes (MS-K88-030321HM-PC2BSRAK88) was performed at Iowa State University (ISU) with comparison to ECMS091703HM-competent cells.

Assay [4] concerns K88 Cured vaccine (MS-K88-030321HM-PC2BSRAK88). The description is as above. The format is cell-based, E. coli. Particulars: for MIC: Table 7, E. COS, K88 Cured vaccine; for Antibiotic sensitivity of cured cells (in words): cured MS-K88-030321HM-PC2BSRAK88 cells compared with ECMS091703HM-competent cells. As to the method:
as §2

Assay [5] deals with MS112101HM-competent (competent Edema Vac F18 cells). The experiment in a line: AMR disc testing on Mueller Hinton agar plates. The format is cell-based, E. coli. Conditions: antibiotic disc. As to the method:
(§3) AMR testing was performed comparing MS112101HM—SR, MS112101HM-AMR5, and MS112101HM-competent cells cultured on Mueller Hinton agar plates using Sulfatrim (SXT), Tetracycline (TE 30), Neomycin (NE 30), Sulfathiazine (ST 0.25), and Gentamicin (GM 10) discs.

For assay [6], the system named is MS112101HM-SR (Edema Vac F18 cells cured of plasmids that contain AMR genes). The experiment in a line: AMR disc testing on Mueller Hinton agar plates. The format is cell-based, E. coli. Particulars: for Ring measurement (radius, mm): antibiotic disc, Mueller Hinton plates, MS112101HM-SR; for Resistance of the strain to the antibiotic (in words): disc test, MS112101HM-SR compared with MS112101HM-competent. The procedure: as §3

Assay [7] relates to MS112101HM-AMR5 (Edema Vac F18 transformed with AMR5 plasmid). The experiment in a line: AMR disc testing on Mueller Hinton agar plates. The format is cell-based, E. coli. Particulars: for Ring measurement (radius, mm): antibiotic disc, Mueller Hinton plates. As to the method: as §3
The subject of assay [8] is ECMS091703HM-SR (Entero Vac K88 cells cured of plasmids that contain AMR genes). The experiment in a line: AMR disc testing on Mueller Hinton agar plates. The format is cell-based, E. coli. As to the method:
AMR testing was performed comparing ECMS091703HM-SR and ECMS091703HM-competent cells cultured on Mueller Hinton agar plates using Neomycin (NE 30) and Sulfathiazine (ST 0.25) discs. A master plate of ECMS091703HM-SR was produced as follows: subculturing a colony of ECMS091703HM-SR from LB agar containing 5% sucrose on new LB agar containing 5% sucrose, incubating overnight at 37° C., and storing sealed at 2-8° C.

Assay [9] relates to Edema Vac F18 strain of E. coli vaccine. Conditions: TSB media, overnight 37° C. As to the method:
(§4) Testing for resistance of the live avirulent E. coli strains, Entero Vac K88 and Edema Vac F18, to sodium chlorite was performed by evaluating the minimum inhibitory concentration of sodium chlorite as follows: Serial dilutions of sodium chlorite were prepared from a 100 mM stock solution using sterile TSB media and filter sterilized through 0.22 μm filter. Serially diluted tubes (5 ml each) were inoculated with either Entero Vac K88 or Edema Vac F18 strains of E. coli vaccine by adding 20 μl of 100 dose size of either Entero Vac K88 or Edema Vac F18 vaccine rehydrated in 5 ml TSB media. Positive controls are inoculated TSB media only, negative controls are uninoculated TSB media. All tubes were incubated overnight at 37° C. and turbidity was visualized the following day. Results of the MIC tests are disclosed in Table 1.

Assay [10] has as its system Entero Vac K88 strain of E. coli vaccine. Particulars: TSB media, overnight 37° C. The procedure: as §4

Like-named read-outs stand apart in the source and are kept apart here.

With `CN1C[C@@H]2C[C@H]1CN2c1cc2c(cc1F)c(=O)c(C(=O)O)cn2C1CC1` [Danofloxacin], the MIC result in assay [1] (Table 4, E. COLH) was “NI/<=0.1200”; in assay [1] (Table 5, E. COS), “NI/<=0.1200”; in assay [2], “NI/<=0.1200”; in assay [3], “NI/<=0.1200”; in assay [4], “NI/<=0.1200”.
Turning to `CS(=O)(=O)c1ccc([C@@H](O)[C@@H](CF)NC(=O)C(Cl)Cl)cc1` [Florfenicol], the “Antibiotic resistance of cured cells (in words)” value (shortened to “Antibiotic resistance”) in [1] is “loss of antibiotic resistance”. Besides, the “Antibiotic sensitivity of cured cells (in words)” value (from here on “Antibiotic sensitivity”) in assay [4] is given as “more sensitive”.
For the compound `CCCN1C[C@H](C)[C@@H](O)[C@](C)(O)[C@@H](CC)OC(=O)[C@H](C)[C@@H](O[C@H]2C[C@@](C)(OC)[C@@H](O)[C@H](C)O2)[C@H](C)[C@@H](O[C@@H]2O[C@H](C)C[C@H](N(C)C)[C@H]2O)[C@](C)(O)C[C@H]1C` [Gamithromycin], the MIC result in assay [1] (Table 4, E. COLH) is “NI/4.0000 ^”; in assay [1] (Table 5, E. COS) it was “NI/8.0000 ^”; in assay [2], “NI/4.0000 ^”; in assay [3], “NI/>8.0000”; in assay [4], “NI/8.0000 ^”.
Take `CN[C@@H]1[C@H](O)[C@H](NC)[C@H]2O[C@@]3(O)C(=O)C[C@@H](C)O[C@H]3O[C@@H]2[C@H]1O` [Spectinomycin]: the MIC entry in assay [1] (Table 4, E. COLH) was “NI/16.0000”; in assay [1] (Table 5, E. COS) it was “NI/<=8.0000”; in assay [2], “NI/>64.0000”; in [3], “NI/>64.0000”; in assay [4] it was “NI/<=8.0000”.
As for `COc1cc(NS(=O)(=O)c2ccc(N)cc2)nc(OC)n1` [Sulfadimethoxine], the “Antibiotic resistance” value in [1] is listed as “loss of antibiotic resistance”. Moreover, the “Antibiotic sensitivity” value in assay [4] is listed as “more sensitive”.
Consider `CN(C)[C@@H]1C(O)=C(C(N)=O)C(=O)[C@@]2(O)C(O)=C3C(=O)c4c(O)cccc4[C@@](C)(O)[C@H]3C[C@@H]12` [Tetracycline], for which the “Ring measurement (radius, mm)” value in [5], in assay [6] and in assay [7] was 0 mm throughout.
For the compound `C=C[C@]1(C)C[C@@H](OC(=O)CSCCN(CC)CC)[C@]2(C)[C@H](C)CC[C@]3(CCC(=O)[C@H]32)[C@@H](C)[C@@H]1O` [Tiamulin], in [1], the “Antibiotic resistance” value is “retained resistance”.
On to `CC[C@H]1OC(=O)C[C@@H](O)[C@H](C)[C@@H](O[C@@H]2O[C@H](C)[C@@H](O)[C@H](N(C)C)[C@H]2O)[C@@H](CCN2CCCCC2)C[C@@H](C)C(=O)/C=C/C(C)=C/[C@@H]1CN1CCCCC1` [Tildipirosin], for which the MIC entry in assay [1] (Table 4, E. COLH) is on record as “NI/4.0000 ^”; in assay [1] (Table 5, E. COS), “NI/8.0000 ^”; in [2], “NI/4.0000 ^”; in assay [3], “NI/8.0000 ^”; in assay [4], “NI/8.0000 ^”.
Turning to `CC[C@H]1OC(=O)C[C@@H](O)[C@H](C)[C@@H](O[C@@H]2O[C@H](C)[C@@H](O)[C@H](N(C)C)[C@H]2O)[C@@H](CCN2C[C@H](C)C[C@H](C)C2)C[C@@H](C)C(=O)/C=C/C(C)=C/[C@@H]1CO[C@@H]1O[C@H](C)[C@@H](O)[C@@H](OC)[C@H]1OC` [Tilmicosin], in assay [1], the “Antibiotic resistance” value is “retained resistance”.
In the case of `CCCNC[C@]1(O)[C@H](C)O[C@@H](O[C@H]2[C@H](C)[C@@H](O[C@@H]3O[C@H](C)C[C@H](N(C)C)[C@H]3O)[C@](C)(O)C[C@@H](C)CN[C@H](C)[C@@H](O)[C@](C)(O)[C@@H](CC)OC(=O)[C@@H]2C)C[C@@]1(C)OC` [Tulathromycin], the MIC result was “NI/<=8.0000” in assay [1] (Table 4, E. COLH); “NI/<=8.0000” in assay [1] (Table 5, E. COS); “NI/<=8.0000” in assay [2]; “NI/32.0000 ^” in assay [3]; “NI/<=8.0000” in [4].
Regarding `CC[C@H]1OC(=O)C[C@@H](O)[C@H](C)[C@@H](O[C@@H]2O[C@H](C)[C@@H](O[C@H]3C[C@@](C)(O)[C@@H](O)[C@H](C)O3)[C@H](N(C)C)[C@H]2O)[C@@H](CC=O)C[C@@H](C)C(=O)/C=C/C(C)=C/[C@@H]1CO[C@@H]1O[C@H](C)[C@@H](O)[C@@H](OC)[C@H]1OC` [Tylosin (Tartrate/Base), Tylosin], the MIC result in [1] (Table 4, E. COLH) is reported as “NI/>32.0000^”; in assay [1] (Table 5, E. COS), “NI/>32.0000”; in assay [2] it was “NI/>32.0000”; in assay [3], “NI/>32.0000”; in assay [4] it was “NI/>32.0000”.
For the compound Gentamicin, the “Antibiotic resistance” value in assay [1] is recorded as “loss of antibiotic resistance”. The “Ring measurement (radius, mm)” value was 4 mm in [5], 11 mm in assay [6] and 11 mm in assay [7]. The “Resistance of the strain to the antibiotic (in words)” value (shortened to “Resistance of the strain”) in assay [6] is on record as “less resistance”.
As for Neomycin, the “Antibiotic sensitivity” value in assay [4] is on record as “more sensitive”. The “Ring measurement (radius, mm)” value in assay [5] worked out at 7 mm; in [6] it was 8 mm; in assay [7], 11 mm; in [8] (antibiotic disc, Mueller Hinton plates, ECMS091703HM-SR), 34 mm. Moreover, the “Resistance of the strain” value in assay [6] was “less resistance”; in assay [7] (disc test) it was “retained resistance”; in assay [8] (disc test, ECMS091703HM-SR compared with ECMS091703HM-competent) it was “less resistance”.
On to Penicillin, for which the “Antibiotic resistance” value in assay [1] is recorded as “retained resistance”.
As for Sodium Chlorite [NaClO2], the Turbidity result is listed as “Pos” in assay [9] (NaClO2 0.03125 mM); “Pos” in assay [9] (NaClO2 0.0625 mM); “Neg” in assay [9] (NaClO2 0.125 mM); “Neg” in [9] (NaClO2 0.25 mM); “Neg” in assay [9] (NaClO2 0.5 mM); “Neg” in [9] (NaClO2 1 mM). The Turbidity result was “Neg” in assay [9] (NaClO2 10 mM); “Pos” in assay [10] (NaClO2 0.03125 mM); “Pos” in assay [10] (NaClO2 0.0625 mM); “Neg” in assay [10] (NaClO2 0.125 mM); “Neg” in assay [10] (NaClO2 0.25 mM); “Neg” in assay [10] (NaClO2 0.5 mM). The Turbidity result in assay [10] (NaClO2 1 mM) and in assay [10] (NaClO2 10 mM) was “Neg” each time.
Consider Sulfatrim [SXT], for which the “Ring measurement (radius, mm)” value in assay [5] is reported as 11 mm; in [6], 16 mm; in assay [7] it was 17 mm. In addition, the “Resistance of the strain” value in assay [6] was “less resistance”.
With Trimethoprim/Sulphamethoxazole, the MIC result in [1] (Table 4, E. COLH) was “NI/<=2.0000”; in assay [1] (Table 5, E. COS), “NI/<=2.0000”; in assay [2] it was “NI/<=2.0000”; in [3], “NI/<=2.0000”; in assay [4] it was “NI/<=2.0000”.
